Experimental data reported in US6623735B1, “Vaccine containing a thiol protease” (priority 1992, dated 2003).
Starred links: 1 amine or outer side, 2 acyl side, 3 side chain; linkers in the order of their positions; H or OH if unused. Residues, ends and D or L forms follow the SMILES beside them. *: point of attachment. AMC = Cc1cc(=O)oc2cc(N*)ccc12; Suc = O=C(CCC(=O)[*:2])[*:1]; Tos = Cc1ccc(S(=O)(=O)*)cc1; Cbz = O=C(OCc1ccccc1)*; Boc = CC(C)(C)OC(=O)*; Bz = O=C(c1ccccc1)*

Key:
[1] = test system: E/S products from newly excysted juvenile (NEJ) F. hepatica; experiment: Specific activity against fluorogenic substrates by E/S products, NEJ; type: biochemical, Fasciola hepatica; settings: E/S products of NEJ; means of duplicate results
Protocol: F. hepatica metacercariae (Pfizer strain) encysted on cellophane were removed with a Pasteur pipette into 2% sodium hypochlorite, vortexed and incubated for 30 minutes at 37° C. This procedure removes the outer cyst of the metacercariae. The metacercariae, now only with the inner transparent cyst, were placed into microtitre wells with an automatic pipette using a stereomicroscope and washed in distilled water. They were then incubated in a medium prepared by mixing equal volumes of 0.05M HCl with a solution containing 1% sodium bicarbonate, 0.8% NaCl and 0.2% sodium taurocholate. After 3 hours at 37° C. 70-80% of the flukes were excysted and actively moving. The excysted juveniles were separated from the inner cysts using a 20 μl automatic pipette under a stereomicroscope.
(§1) Newly excysted juvenile (NEJ), 3 week-old, 5 week-old and mature F. hepatica were maintained in vitro over a period of 3 days. The culture medium, removed daily, was then assayed for Cathepsin L-like activity using the fluorogenic substrate Z-phe-arg-AMC. Cathepsin L-like activity was present in the E/S products from all stages examined. Whilst the Cathepsin L-like activity increased on a daily basis in the NEJ E/S products, indicating an increase in its secretion with time, the activity of this proteinase in the EIS of all other stages decreased over the same time period. The proteinase activity in the E/S of each liver fluke stage was compared using three arginine-containing fluorogenic peptide substrates. These substrates were chosen on the basis of their affinity for lysosomal cathepsin enzymes; cathepsin L (Z-phe-arg-AMC), cathepsin B (Z-arg-arg-AMC) and cathepsin H (Z-arg-AMC). Significant activity was only detected using the Z-phe-arg-AMC substrate and similar results were obtained for all liver fluke stages examined (Table 2 below).

[2] = test system: E/S products from mature F. hepatica; experiment: Specific activity against fluorogenic substrates by E/S products, adult flukes; type: biochemical, Fasciola hepatica; settings: E/S products of adult flukes; means of duplicate results
Protocol: (§2) Mature flukes were removed from the bile ducts of bovine livers obtained at an abbattoir. Immature parasites were obtained from the liver of male Wistar rats three and five weeks after infection with 20 metacercariae.
as §1

F. hepatica cathepsin L2 = experiment: Enzyme kinetic studies, cathepsin L2; type: biochemical, Fasciola hepatica; settings: 0.1M glycine pH 7.0, 37° C.
Protocol: (§3) The kinetic constants of F. hepatica cathepsins L1 and L2 enzymes were determined for 11 different substrates: Z-Phe-Arg-AMC, Bz-Phe-Val-Arg-AMC, Suc-Leu-Leu-Val-Tyr-AMC, H-Leu-Val-Tyr-AMC, Tos-Gly-Pro-Lys-AMC, Tos-Gly-Pro-Arg-AMC, Boc-Val-Pro-Arg-AMC, Z-Arg-Arg-AMC, Z-Arg-AMC, Suc-Ala-Phe-Lys-AMC and Boc-Val-Leu-Lys-AMC. One mg of fluorogenic substrate was dissolved in 100 μl of dimethyl formamide. This stock solution was diluted in 0.1M glycine pH 7.0 to achieve the desired concentration of substrate. Each substrate concentration was in triplicate and the final assay volume was 1.0 ml. Included in the 1 ml aliquot was 20 μl of enzyme and 50 μl of 10 mM dithiothreitol. The samples were incubated at 37° C. for 30 min before stopping the reaction with the addition of 200 μl of 1.7 M acetic acid. The samples were assayed for released 7-amino-methyl-coumarin as above. The kinetic constants Vmax and Km were obtained by non-linear regression according to the method of Barrett et al (Biochem J. 201, p.189-198) except that 20 μl of cathepsin L2 was incubated with 20 μl of 1.0 μM-0.1 μM E-64 in a final volume of 80 μl 0.1M glycine pH 7.0 for 30 mins at 37° C. Twenty μl of 1/10 cathepsin L1 was incubated with 20 μl of 5 μM-0.5 μM E-64 in a final volume of 80 μl 0.1M glycine pH 7.0 for 30 min. at 37° C. All of the incubated sample was assayed for the fluorogenic substrate Z-Phe-Arg-AMC as above.

[3] = test system: E/S products from 3 week-old F. hepatica; experiment: Specific activity against fluorogenic substrates by E/S products, 3 week-old flukes; type: biochemical, Fasciola hepatica; settings: E/S products of 3 week-old flukes; means of duplicate results
Protocol: as §2, §1

[4] = test system: E/S products from 5 week-old F. hepatica; experiment: Specific activity against fluorogenic substrates by E/S products, 5 week-old flukes; type: biochemical, Fasciola hepatica; settings: E/S products of 5 week-old flukes; means of duplicate results
Protocol: as §2, §1

F. hepatica cathepsin L1 = experiment: Enzyme kinetic studies, cathepsin L1; type: biochemical, Fasciola hepatica; settings: 0.1M glycine pH 7.0, 37° C.
Protocol: as §3

[5] = test system: IgG cleaving activity of the E/S products from adult flukes; experiment: Inhibition of IgG cleaving activity of adult fluke E/S products; type: biochemical, Fasciola hepatica; settings: final concentration of 50 μM
Protocol: (§4) As IgG is involved in antibody-dependent cellular cytotoxicity against helminth parasites and since adult fluke Cathepsin-L1 cleaves mouse IgG2a [see above], the E/S products from NEJ, 3 week-old, 5 week-old and adult flukes were tested for antibody cleaving activity. E/S products from all F. hepatica stages examined were capable of cleaving the purified IgG at the hinge region of the heavy chain and thereby releasing the Fc portion from the antibody binding regions.

[6] = test system: IgG cleaving activity of the E/S products from NEJ flukes; experiment: Inhibition of IgG cleaving activity of NEJ E/S products; type: biochemical, Fasciola hepatica; settings: final concentration of 50 μM
Protocol: as §4

[7] = test system: antibody-mediated attachment of eosinophils to NEJ; experiment: Eosinophil adherence to NEJ in vitro assay; type: cell-based, rat
Protocol: Twenty newly excysted juvenile F. hepatica were dispensed into 100 μl of rat eosinophil-rich suspension in microtitre wells. According to the experiment either 100 μl aliquots of immune serum or control serum were added with or without E/S products or purified Cathepsin L1. The cysteine proteinase inhibitor leupeptin was added in some experiments at a final concentration of 5 μg/ml. All dilutions were made in Roswell Park Memorial Institute 1640 with 4% heat inactivated fetal calf serum. At the end of the experiment juvenile flukes were carefully transferred to a microscope slide and examined microscopically at 40× and 100× magnifications. Individual flukes were examined and the number of bound eosinophils counted. Those NEJ with more than 20 cells attached were considered positive.
When rat eosinophil-rich cell populations were added to NEJ in the presence of immune rat serum (IRS obtained from female Wistar rats orally infected with 30 F. hepatica metacercariae; blood was taken after 5 weeks of infection; the sera obtained were pooled, aliquoted and stored at −20° C. until required; control serum was collected from uninfected rats), cell adherence was consistently high (>90% positive NEJ after 2 hours, FIG. 4, panel A; the scale along the base of the Figure represents percentage of positive NEJ as defined above; the 5 bars represent counts at 2 hour intervals). […]

NEJ = test system: NEJ; set-up: species or system Fasciola hepatica; settings: added to NEJ in culture; data not shown

| Compound | Specific activity against fluorogenic substrates, NEJ [1] [μmol AMC/min/Mg] | Specific activity against fluorogenic substrates, Adults [2] [μmol AMC/min/Mg] | Kcat (F. hepatica cathepsin L2) [s⁻¹] | Km (F. hepatica cathepsin L2) [µM] | Specific activity against fluorogenic substrates, 3 weeks [3] [μmol AMC/min/Mg] | Specific activity against fluorogenic substrates, 5 weeks [4] [μmol AMC/min/Mg] | Kcat (F. hepatica cathepsin L1) [s⁻¹] | Km (F. hepatica cathepsin L1) [µM] | inhibition of IgG cleaving activity [5] | inhibition of IgG cleaving activity [6] | effect on action of E/S products and Cathepsin L1 on eosinophil attachment ([7]; 5 μg/ml, with immune serum and NEJ or mature fluke E/S products or purified Cathepsin L1) | rate at which eosinophils are lost from the NEJ surface ([7]; in the presence of immune serum, FIG. 4 panel I) | viability of NEJ (NEJ) |
| --- | --- | --- | --- | --- | --- | --- | --- | --- | --- | --- | --- | --- | --- |
| Cc1cc(=O)oc2cc(NC(=O)[C@H](CCCN=C(N)N)NC(=O)OCc3ccccc3)ccc12 [Z-Arg-AMC] | 1 | 63 | 0.09 | 14.1 | 3 | 5 | 0.04 | 20.4 |  |  |  |  |  |
| Cc1cc(=O)oc2cc(NC(=O)[C@H](CCCN=C(N)N)NC(=O)[C@@H]3CCCN3C(=O)[C@@H](NC(=O)OC(C)(C)C)C(C)C)ccc12 [Boc-Val-Pro-Arg-AMC] (Boc-Val-Pro-Arg-{AMC}) |  |  | 1.19 | 24.8 |  |  | 0.02 | 43.6 |  |  |  |  |  |
| Cc1cc(=O)oc2cc(NC(=O)[C@H](CCCN=C(N)N)NC(=O)[C@H](CCCN=C(N)N)NC(=O)OCc3ccccc3)ccc12 [Z-Arg-Arg-AMC] (Cbz-Arg-Arg-{AMC}) | 0 | 21 | 0.02 | 9.07 | 0 | 2 | 0.002 | 65.6 |  |  |  |  |  |
| C[C@H](NC(=O)[C@H](Cc1ccccc1)NC(=O)OCc1ccccc1)C(=O)C=[N+]=[N-] [Z-phe-ala-CHN2] |  |  |  |  |  |  |  |  | completely inhibited | completely inhibited |  |  |  |
| Cc1cc(=O)oc2cc(NC(=O)[C@H](CCCNC(=N)N)NC(=O)[C@H](Cc3ccccc3)NC(=O)OCc3ccccc3)ccc12 [Z-Phe-Arg-AMC, benzyloxycarbonyl-L-phenylalanyl-L-arginyl-7-amido-4-methyl coumarin] (Cbz-Phe-Arg-{AMC}) | 25 | 1254 | 0.56 | 3.76 | 29 | 90 | 1.08 | 14.7 |  |  |  |  |  |
| Cc1cc(=O)oc2cc(NC(=O)[C@H](CCCCN)NC(=O)[C@H](Cc3ccccc3)NC(=O)[C@H](C)NC(=O)CCC(=O)O)ccc12 [Suc-Ala-Phe-Lys-AMC] (Suc-Ala-Phe-Lys-{AMC}) |  |  | 0.14 | 41.1 |  |  | 0.05 | 65.3 |  |  |  |  |  |
| Cc1cc(=O)oc2cc(NC(=O)[C@H](CCCCN)NC(=O)[C@H](CC(C)C)NC(=O)[C@@H](NC(=O)OC(C)(C)C)C(C)C)ccc12 [Boc-Val-Leu-Lys-AMC] (Boc-Val-Leu-Lys-{AMC}) |  |  | 3.75 | 7.34 |  |  | 7.90 | 34.7 |  |  |  |  |  |
| Cc1cc(=O)oc2cc(NC(=O)[C@H](CCCN=C(N)N)NC(=O)[C@@H](NC(=O)[C@H](Cc3ccccc3)NC(=O)c3ccccc3)C(C)C)ccc12 [Bz-Phe-Val-Arg-AMC] (Bz-Phe-Val-Arg-{AMC}) |  |  | 0.06 | 1.2 |  |  | 0.03 | 9.25 |  |  |  |  |  |
| CC(=O)N[C@@H](CC(C)C)C(=O)N[C@@H](CC(C)C)C(=O)N[C@H](C=O)CCCNC(=N)N [leupeptin] |  |  |  |  |  |  |  |  |  |  | inhibits the effect of the E/S products and Cathepsin L1 | slightly reduces | did not affect their viability |
| Cc1ccc(S(=O)(=O)NCC(=O)N2CCC[C@H]2C(=O)N[C@@H](CCCNC(=N)N)C(=O)Nc2ccc3c(C)cc(=O)oc3c2)cc1 [Tos-Gly-Pro-Arg-AMC] (Tos-Gly-Pro-Arg-{AMC}) |  |  | 1.93 | 17.1 |  |  | 0.03 | 26 |  |  |  |  |  |
| Cc1cc(=O)oc2cc(NC(=O)[C@H](Cc3ccc(O)cc3)NC(=O)[C@@H](NC(=O)[C@H](CC(C)C)NC(=O)[C@H](CC(C)C)NC(=O)CCC(=O)O)C(C)C)ccc12 [Suc-Leu-Leu-Val-Tyr-AMC] (Suc-LLVY-{AMC}) |  |  | 0.08 | 23.3 |  |  | 0.01 | 38.5 |  |  |  |  |  |
| Cc1cc(=O)oc2cc(NC(=O)[C@H](Cc3ccc(O)cc3)NC(=O)[C@@H](NC(=O)[C@@H](N)CC(C)C)C(C)C)ccc12 [H-Leu-Val-Tyr-AMC] (H-Leu-Val-Tyr-{AMC}) |  |  | 0.21 | 3.75 |  |  | 0.02 | 5.4 |  |  |  |  |  |
| Cc1ccc(S(=O)(=O)NCC(=O)N2CCC[C@H]2C(=O)N[C@@H](CCCCN)C(=O)Nc2ccc3c(C)cc(=O)oc3c2)cc1 [Tos-Gly-Pro-Lys-AMC] (Tos-Gly-Pro-Lys-{AMC}) |  |  | 1.37 | 35.5 |  |  | 0.03 | 107 |  |  |  |  |  |
